ChEMBL document CHEMBL4765460, “Palladium-catalysed synthesis of arylnaphthoquinones as antiprotozoal and antimycobacterial agents” (Eur J Med Chem, 2020)
Values after ≈ are worked out from the molar mass of the structure shown.

Columns and labels:
Plasmodium falciparum = assay: Antiplasmodial activity against Plasmodium falciparum NF54 erythrocytic stages assessed as parasite growth inhibition preincubated overnight followed by [G-3H]hypoxanthine addition and measured after 24 hrs by liquid scintillation counting method; type: functional, organism-based
[1] = test system: Mycolicibacterium smegmatis; assay: Antimycobacterial activity against Mycobacterium smegmatis mc2 155 ATCC 700084 assessed as fold reduction in EtBr MIC at half MIC concentration; type: functional
[2] = test system: Mycolicibacterium smegmatis; assay: Antimycobacterial activity against Mycobacterium smegmatis mc2 155 ATCC 700084 assessed as inhibition of visible growth of bacteria by MTT assay; type: functional
[3] = test system: Trypanosoma brucei rhodesiense; assay: Trypanocidal activity against Trypanosoma brucei rhodesiense STIB900 trypomastigotes incubated for 72 hrs by Alamar blue assay; type: functional, organism-based; details: STIB900, 72 h
[4] = Selectivity index, ratio of IC50 for rat L6 cells to IC50 for Trypanosoma brucei rhodesiense STIB900 trypomastigotes; type: toxicity; details: read-out: Ratio IC50
[5] = Selectivity index, ratio of IC50 for rat L6 cells to IC50 for Plasmodium falciparum NF54; type: toxicity; details: read-out: Ratio IC50
L6 = assay: Cytotoxicity against rat L6 cells; type: cell-based

| Compound | IC50 (Plasmodium falciparum; read-out: IC50) | IC50 (Plasmodium falciparum; read-out: pIC50 (converted)) | fold change (FC) [1] | MIC [2] | IC50 ([3]; read-out: IC50) | IC50 ([3]; read-out: pIC50 (converted)) | selectivity ratio [4] | selectivity ratio [5] | IC50 (L6) |
| --- | --- | --- | --- | --- | --- | --- | --- | --- | --- |
| O=C1C=C(c2ccccc2)C(=O)c2ccccc21 | 11 µM | 11 µM | 4 | 8 mg/L (≈ 34.2 µM) | 0.06 µM | 0.055 µM | 323 | 1.8 | 19.4 µM |
| Cc1ccc(C2=CC(=O)c3ccccc3C2=O)cc1 | 3.86 µM | 3.89 µM | 2 | 32 mg/L (≈ 129 µM) | 0.08 µM | 0.0759 µM | 90.8 | 1.9 | 7.26 µM |
| O=C1C=C(c2ccc(Cl)nc2)C(=O)c2ccccc21 | 0.07 µM | 0.0661 µM | 128 | 32 mg/L (≈ 119 µM) | 2.2 µM | 2.19 µM | 14.7 | 463 | 32.4 µM |
| O=C1C=C(c2ccc(F)cc2)C(=O)c2ccccc21 | 1.81 µM | 1.82 µM | >128 | 128 mg/L (≈ 507 µM) | 0.22 µM | 0.219 µM | 41.2 | 5 | 9.06 µM |
| N#Cc1ccc(C2=CC(=O)c3ccccc3C2=O)cc1 | 1.11 µM | 1.1 µM | >128 | 64 mg/L (≈ 247 µM) | 0.28 µM | 0.275 µM | 25.8 | 6.5 | 7.21 µM |
| O=C1C=C(c2cc(F)cc(F)c2)C(=O)c2ccccc21 | 0.59 µM | 0.589 µM | 4 | > 128 mg/L | 0.24 µM | 0.24 µM | 40.3 | 16.4 | 9.67 µM |
| O=C1C=C(c2cnc3ccccc3c2)C(=O)c2ccccc21 | 0.45 µM | 0.447 µM | 8 | 8 mg/L (≈ 28 µM) | 0.22 µM | 0.224 µM | 25.6 | 12.5 | 5.64 µM |
| CS(=O)(=O)Nc1cccc(C2=CC(=O)c3ccccc3C2=O)c1 | 2.56 µM | 2.57 µM | 128 | > 128 mg/L | 0.2 µM | 0.2 µM | 46.3 | 3.6 | 9.25 µM |
| O=C1C=C(c2ccc(Cl)cc2)C(=O)c2ccccc21 | 2.64 µM | 2.63 µM | >128 | 16 mg/L (≈ 59.5 µM) | 0.22 µM | 0.224 µM | 40.7 | 3.4 | 8.96 µM |
| O=C1C=C(c2cnc(Cl)nc2)C(=O)c2ccccc21 | 0.47 µM | 0.468 µM | 2 | 4 mg/L (≈ 14.8 µM) | 0.13 µM | 0.129 µM | 7.8 | 2.2 | 1.02 µM |
| O=C1C=C(c2cc3ccccc3o2)C(=O)c2ccccc21 | 25 µM | 25.1 µM | 2 | > 128 mg/L | 1.36 µM | 1.35 µM | 154 | 8.4 | 209 µM |
| O=C1C=C(c2ccc(F)nc2)C(=O)c2ccccc21 | 0.11 µM | 0.115 µM | >128 | 16 mg/L (≈ 63.2 µM) | 0.14 µM | 0.138 µM | 15 | 19.1 | 2.1 µM |
| O=C1C=C(c2ccc(C(=O)N3CCCCC3)cc2)C(=O)c2ccccc21 | 2.37 µM | 2.34 µM | 8 | 32 mg/L (≈ 92.6 µM) | 0.75 µM | 0.741 µM | 12.9 | 4.1 | 9.71 µM |
| O=C1C=C(c2ccc(C(F)(F)F)cc2)C(=O)c2ccccc21 | 1.08 µM | 1.07 µM | 4 | 128 mg/L (≈ 423 µM) | 0.08 µM | 0.0759 µM | 189 | 14 | 15.1 µM |
| CC(C)c1ccc(C2=CC(=O)c3ccccc3C2=O)cc1 | 2.96 µM | 2.95 µM | 4 | 64 mg/L (≈ 232 µM) | 1.45 µM | 1.45 µM | 14.1 | 6.9 | 20.4 µM |
| O=C1C=C(c2ccco2)C(=O)c2ccccc21 | 2.07 µM | 2.09 µM | 2 | 128 mg/L (≈ 571 µM) | 0.13 µM | 0.129 µM | 57.2 | 3.6 | 7.44 µM |
| O=C1C=C(c2cccc(OC(F)(F)F)c2)C(=O)c2ccccc21 | 0.89 µM | 0.891 µM | 128 | 64 mg/L (≈ 201 µM) | 1.8 µM | 1.78 µM | 12.9 | 26.1 | 23.2 µM |
| O=C1C=C(c2ccc(OC(F)(F)F)cc2)C(=O)c2ccccc21 | 3.87 µM | 3.89 µM | 128 | 16 mg/L (≈ 50.3 µM) | 2.36 µM | 2.34 µM | 7 | 4.3 | 16.6 µM |
| CC[n+]1c(-c2ccccc2)c2cc(N)ccc2c2ccc(N)cc21.[Br-] [HOMIDIUM BROMIDE] | – | – | – | 8 mg/L | – | – | – | – | – |
| NNC(=O)c1ccncc1 [ISONIAZID] | – | – | – | 4 mg/L (≈ 29.2 µM) | – | – | – | – | – |
| COc1cc([C@@H]2c3cc4c(cc3[C@H](O)[C@H]3COC(=O)[C@H]23)OCO4)cc(OC)c1OC [PODOFILOX] | – | – | – | – | – | – | – | – | 0.024 µM |
